Consider 16 molecules from patent US20260241012A1, “1,8-NAPHTHYRIDIN-2-ONE HETEROBIFUNCTIONAL BCL6 DEGRADERS” (Treeline Biosciences, Inc., priority 2022, published 2026).

This experiment addresses T1, N-terminal HiBiT tagged BCL6 (Homo sapiens, UniProt P41182).
T1 construct: expressed in transfected cells; host or cells: HT1080 (ATCC CCL-121), stably transduced with lentivirus pLV-UBC-N-HiBiT-BCL6-PGK-puro
In words: HiBiT based degradation assay. It is filed as cell-based. As to conditions: HT1080 cells expressing N-terminal HiBiT tagged BCL6, 5 hours of incubation; for Ymin (5 hr): BCL6 degradation normalized with DMSO control; for DC50: four-parameter logistic model, read-out: EC50 (5 hr). In short, it runs like this:
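Degradation measured by luminescence from the Nano-Glo HiBiT lytic reagent (15 min, room temperature), normalized to DMSO controls and fitted to a four-parameter curve.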
For orientation: HiBiT is a short tag that completes a luciferase, so light tracks the accessible tagged protein.

SMILES strings stand for the structures.

For the molecule `CNC(=O)COc1cc2cc(Nc3nc(N4CC[C@@H](CN5CCN(c6ccc7c(C8CCC(=O)NC8=O)nn(C)c7c6)CC5)[C@@H](C)C4)ncc3Cl)cnc2n(C(C)C)c1=O` (stereo partly drawn) [Compound 176c, 2-((6-((5-chloro-2-((3R,4R)-4-((4-(3-(2,6-dioxopiperidin-3-yl)-1-methyl-1H-indazol-6-yl)piperazin-1-yl)methyl)-3-methylpiperidin-1-yl)pyrimidin-4-yl)amino)-1-isopropyl-2-oxo-1,2-dihydro-1,8-naphthyridin-3-yl)oxy)-N-methylacetamide], the “Ymin (5 hr)” value is “+++ (30% ≤ Ymin < 50%)” and the DC50 lay in the range of 10 to 100 nM.

On to `CNC(=O)COc1cc2cc(Nc3nc(N4CC[C@@H](CN5CCN(c6ccc7c(C8CCC(=O)NC8=O)nn(C)c7c6)CC5)[C@H](C)C4)ncc3Cl)cnc2n(C(C)C)c1=O` (stereo partly drawn) [Compound 176d, 2-[[6-[[5-chloro-2-[(3S,4R)-4-[[4-[3-(2,6-dioxo-3-piperidyl)-1-methyl-indazol-6-yl]piperazin-1-yl]methyl]-3-methyl-1-piperidyl]pyrimidin-4-yl]amino]-1-isopropyl-2-oxo-1,8-naphthyridin-3-yl]oxy]-N-methyl-acetamide], for which the “Ymin (5 hr)” value is reported as “+++ (30% ≤ Ymin < 50%)” and the DC50 is under 10 nM.

As for `CNC(=O)COc1cc2cc(Nc3nc(N4CC[C@H](CN5CCN(c6cccc7c(C8CCC(=O)NC8=O)nn(C)c67)CC5)[C@H](C)C4)ncc3Cl)cnc2n(C(C)C)c1=O` (stereo partly drawn) [Compound 177a, 2-((6-((5-chloro-2-((3S,4S)-4-((4-(3-(2,6-dioxopiperidin-3-yl)-1-methyl-1H-indazol-7-yl)piperazin-1-yl)methyl)-3-methylpiperidin-1-yl)pyrimidin-4-yl)amino)-1-isopropyl-2-oxo-1,2-dihydro-1,8-naphthyridin-3-yl)oxy)-N-methylacetamide], the “Ymin (5 hr)” value was “++++ (Ymin < 30%)” and the DC50 lay within 10 to 100 nM.

With `CNC(=O)COc1cc2cc(Nc3nc(N4CC[C@@H](CN5CCN(c6cccc7c(C8CCC(=O)NC8=O)nn(C)c67)CC5)[C@@H](C)C4)ncc3Cl)cnc2n(C(C)C)c1=O` (stereo partly drawn) [Compound 177b, 2-[[6-[[5-chloro-2-[(3R,4R)-4-[[4-[3-(2,6-dioxo-3-piperidyl)-1-methyl-indazol-7-yl]piperazin-1-yl]methyl]-3-methyl-1-piperidyl]pyrimidin-4-yl]amino]-1-isopropyl-2-oxo-1,8-naphthyridin-3-yl]oxy]-N-methyl-acetamide], the “Ymin (5 hr)” value is recorded as “+++ (30% ≤ Ymin < 50%)” and the DC50 is 10 to 100 nM.

Take `CNC(=O)COc1cc2cc(Nc3nc(N4CC[C@@H](CN5CCN(c6cccc7c(C8CCC(=O)NC8=O)nn(C)c67)CC5)[C@H](C)C4)ncc3Cl)cnc2n(C(C)C)c1=O` (stereo partly drawn) [Compound 177c, 2-[[6-[[5-chloro-2-[(3S,4R)-4-[[4-[3-(2,6-dioxo-3-piperidyl)-1-methyl-indazol-7-yl]piperazin-1-yl]methyl]-3-methyl-1-piperidyl]pyrimidin-4-yl]amino]-1-isopropyl-2-oxo-1,8-naphthyridin-3-yl]oxy]-N-methyl-acetamide]: the “Ymin (5 hr)” value is “+++ (30% ≤ Ymin < 50%)” and the DC50 lay in the range of 100 to 1000 nM.

Consider `CNC(=O)COc1cc2cc(Nc3nc(N4CC[C@H](CN5CCN(c6cccc7c(C8CCC(=O)NC8=O)nn(C)c67)CC5)[C@@H](C)C4)ncc3Cl)cnc2n(C(C)C)c1=O` (stereo partly drawn) [Compound 177d, 2-((6-((5-chloro-2-((3R,4S)-4-((4-(3-(2,6-dioxopiperidin-3-yl)-1-methyl-1H-indazol-7-yl)piperazin-1-yl)methyl)-3-methylpiperidin-1-yl)pyrimidin-4-yl)amino)-1-isopropyl-2-oxo-1,2-dihydro-1,8-naphthyridin-3-yl)oxy)-N-methylacetamide], for which the “Ymin (5 hr)” value was “++++ (Ymin < 30%)” and the DC50 is 10 to 100 nM.

Take `CNC(=O)COc1cc2cc(Nc3nc(N4CCC(O)(CN5CCN(c6cccc7c(C8CCC(=O)NC8=O)nn(C)c67)CC5)CC4)ncc3Cl)cnc2n(C(C)C)c1=O` (centres unmarked) [Compound 178, 2-[[6-[[5-chloro-2-[4-[[4-[3-(2,6-dioxo-3-piperidyl)-1-methyl-indazol-7-yl]piperazin-1-yl]methyl]-4-hydroxy-1-piperidyl]pyrimidin-4-yl]amino]-1-isopropyl-2-oxo-1,8-naphthyridin-3-yl]oxy]-N-methyl-acetamide]: the “Ymin (5 hr)” value is on record as “+++ (30% ≤ Ymin < 50%)” and the DC50 is under 10 nM.

As to `CNC(=O)COc1cc2cc(Nc3nc(N4C[C@H](C)N(CC5CCN(c6cccc7c(C8CCC(=O)NC8=O)nn(C)c67)CC5)C[C@H]4C)ncc3Cl)cnc2n(C(C)C)c1=O` (stereo partly drawn) [Compound 179a, 2-[[6-[[5-chloro-2-[(2R,5S)-4-[[1-[3-(2,6-dioxo-3-piperidyl)-1-methyl-indazol-7-yl]-4-piperidyl]methyl]-2,5-dimethyl-piperazin-1-yl]pyrimidin-4-yl]amino]-1-isopropyl-2-oxo-1,8-naphthyridin-3-yl]oxy]-N-methyl-acetamide], the “Ymin (5 hr)” value was “+++ (30% ≤ Ymin < 50%)” and the DC50 was 100 to 1000 nM.

Take `CNC(=O)COc1cc2cc(Nc3nc(N4C[C@@H](C)N(CC5CCN(c6cccc7c(C8CCC(=O)NC8=O)nn(C)c67)CC5)C[C@@H]4C)ncc3Cl)cnc2n(C(C)C)c1=O` (stereo partly drawn) [Compound 179b, 2-[[6-[[5-chloro-2-[(2S,5R)-4-[[1-[3-(2,6-dioxo-3-piperidyl)-1-methyl-indazol-7-yl]-4-piperidyl]methyl]-2,5-dimethyl-piperazin-1-yl]pyrimidin-4-yl]amino]-1-isopropyl-2-oxo-1,8-naphthyridin-3-yl]oxy]-N-methyl-acetamide]: the “Ymin (5 hr)” value is “+++ (30% ≤ Ymin < 50%)” and the DC50 was in the range of 100 to 1000 nM.

For the molecule `CNC(=O)COc1cc2cc(Nc3nc(N4CC5(CCC(Oc6cccc7c(C8CCC(=O)NC8=O)nn(C)c67)CC5)C4)ncc3Cl)cnc2n(C(C)C)c1=O` (centres unmarked) [Compound 181, 2-[[6-[[5-chloro-2-[7-[3-(2,6-dioxo-3-piperidyl)-1-methyl-indazol-7-yl]oxy-2-azaspiro[3.5]nonan-2-yl]pyrimidin-4-yl]amino]-1-isopropyl-2-oxo-1,8-naphthyridin-3-yl]oxy]-N-methyl-acetamide], the “Ymin (5 hr)” value is reported as “+++ (30% ≤ Ymin < 50%)” and the DC50 was in the range of 10 to 100 nM.

On to `CNC(=O)COc1cc2cc(Nc3nc(N4CC5(CCC(Nc6ccc7c(C8CCC(=O)NC8=O)nn(C)c7c6)CC5)C4)ncc3Cl)cnc2n(C(C)C)c1=O` (centres unmarked) [Compound 182, 2-((6-((5-chloro-2-(7-((3-(2,6-dioxopiperidin-3-yl)-1-methyl-1H-indazol-6-yl)amino)-2-azaspiro[3.5]nonan-2-yl)pyrimidin-4-yl)amino)-1-isopropyl-2-oxo-1,2-dihydro-1,8-naphthyridin-3-yl)oxy)-N-methylacetamide], for which the “Ymin (5 hr)” value is recorded as “++++ (Ymin < 30%)” and the DC50 is under 10 nM.

In the case of `CNC(=O)COc1cc2cc(Nc3nc(N4CC5(CCC(Oc6ccc7c(C8CCC(=O)NC8=O)nn(C)c7c6)CC5)C4)ncc3Cl)cnc2n(C(C)C)c1=O` (centres unmarked) [Compound 183, 2-[[6-[[5-chloro-2-[7-[3-(2,6-dioxo-3-piperidyl)-1-methyl-indazol-6-yl]oxy-2-azaspiro[3.5]nonan-2-yl]pyrimidin-4-yl]amino]-1-isopropyl-2-oxo-1,8-naphthyridin-3-yl]oxy]-N-methyl-acetamide], the “Ymin (5 hr)” value is “++++ (Ymin < 30%)” and the DC50 is under 10 nM.

Regarding `CNC(=O)COc1cc2cc(Nc3nc(N4CC5(CCC(Nc6cc7c(cc6F)c(C6CCC(=O)NC6=O)nn7C)CC5)C4)ncc3Cl)cnc2n(C(C)C)c1=O` (centres unmarked) [Compound 184, 2-[[6-[[5-chloro-2-[7-[[3-(2,6-dioxo-3-piperidyl)-5-fluoro-1-methyl-indazol-6-yl]amino]-2-azaspiro[3.5]nonan-2-yl]pyrimidin-4-yl]amino]-1-isopropyl-2-oxo-1,8-naphthyridin-3-yl]oxy]-N-methyl-acetamide], the “Ymin (5 hr)” value is recorded as “++++ (Ymin < 30%)” and the DC50 is under 10 nM.

Turning to `CNC(=O)COc1cc2cc(Nc3nc(N4CCN(CC5CCN(c6cccc7c(C8CCC(=O)NC8=O)nn(C)c67)CC5)CC4)ncc3Cl)cnc2n(CCO)c1=O` (centres unmarked) [Compound 186, 2-((6-((5-chloro-2-(4-((1-(3-(2,6-dioxopiperidin-3-yl)-1-methyl-1H-indazol-7-yl)piperidin-4-yl)methyl)piperazin-1-yl)pyrimidin-4-yl)amino)-1-(2-hydroxyethyl)-2-oxo-1,2-dihydro-1,8-naphthyridin-3-yl)oxy)-N-methylacetamide], the “Ymin (5 hr)” value is reported as “++++ (Ymin < 30%)” and the DC50 was 10 to 100 nM.

On to `CNC(=O)COc1cc2cc(Nc3nc(N4CCC(CN5CC6CC(C5)N6c5cccc6c(C7CCC(=O)NC7=O)nn(C)c56)CC4)ncc3Cl)cnc2n(C(C)C)c1=O` (centres unmarked) [Compound 187, 2-[[6-[[5-chloro-2-[4-[[6-[3-(2,6-dioxo-3-piperidyl)-1-methyl-indazol-7-yl]-3,6-diazabicyclo[3.1.1]heptan-3-yl]methyl]-1-piperidyl]pyrimidin-4-yl]amino]-1-isopropyl-2-oxo-1,8-naphthyridin-3-yl]oxy]-N-methyl-acetamide], for which the “Ymin (5 hr)” value is recorded as “+++ (30% ≤ Ymin < 50%)” and the DC50 was in the range of 10 to 100 nM.

Regarding `CNC(=O)COc1cc2cc(Nc3nc(N4CCC(CN5CCN(c6cccc7c(C8CCC(=O)NC8=O)nn(C)c67)C[C@H]5C)CC4)ncc3F)cnc2n(C(C)C)c1=O` (stereo partly drawn) [Compound 188a, 2-[[6-[[2-[4-[[(2R)-4-[3-(2,6-dioxo-3-piperidyl)-1-methyl-indazol-7-yl]-2-methyl-piperazin-1-yl]methyl]-1-piperidyl]-5-fluoro-pyrimidin-4-yl]amino]-1-isopropyl-2-oxo-1,8-naphthyridin-3-yl]oxy]-N-methyl-acetamide], the “Ymin (5 hr)” value is “+++ (30% ≤ Ymin < 50%)” and the DC50 lay within 10 to 100 nM.
